Results reported in US20210290597A1, “METHOD OF TREATING A CONDITION ASSOCIATED WITH NEURODEGENERATION USING INHIBITORS OF OAT3” (Neuropore Therapies, Inc., priority 2018, published 2021).
pIC50: −log10 of the molar value.

Legend:
human transporter OAT3 = biological target: T1, human transporter OAT3 (Homo sapiens, UniProt Q8TCC7); experiment: In vitro ion transport assay 1, OAT3-mediated uptake in MDCK-II cells; assay type: cell-based
T1 construct: expressed in transfected cells; host or cells: MDCK-II
T1 sequence (Q8TCC7 1-542): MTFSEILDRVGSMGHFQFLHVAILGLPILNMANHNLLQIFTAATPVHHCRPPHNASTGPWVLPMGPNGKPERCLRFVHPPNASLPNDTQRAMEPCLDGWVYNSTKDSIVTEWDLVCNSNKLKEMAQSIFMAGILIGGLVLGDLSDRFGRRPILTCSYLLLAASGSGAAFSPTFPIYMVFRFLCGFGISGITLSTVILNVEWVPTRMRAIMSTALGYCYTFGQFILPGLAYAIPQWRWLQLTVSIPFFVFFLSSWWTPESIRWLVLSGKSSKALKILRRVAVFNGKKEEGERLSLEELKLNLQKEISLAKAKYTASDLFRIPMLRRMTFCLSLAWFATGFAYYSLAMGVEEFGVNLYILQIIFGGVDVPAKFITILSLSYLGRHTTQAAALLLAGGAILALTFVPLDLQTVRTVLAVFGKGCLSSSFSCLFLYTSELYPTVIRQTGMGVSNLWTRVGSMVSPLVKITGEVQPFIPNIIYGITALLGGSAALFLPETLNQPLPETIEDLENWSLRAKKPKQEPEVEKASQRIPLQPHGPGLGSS
Description: To determine the effect of the ion transporter inhibitors on the uptake activity of solute carrier (SLC) ion transporter proteins such as OAT1 and OAT3, an ion transport assay utilizing a polarized monolayer of MDCK-II cells grown on permeable supports was used. The MDCK-II cells were treated to express the transporter of interest (e.g., OAT3 or OAT 1) or were treated with a control vector. 96-well culture plates with both donor and receiver cells containing a monolayer of MDCK-II cells were maintained at 37° C. in 5% CO2 atmosphere. Radio-labeled para-aminohippurate ([3H]-PAH) was used as a substrate for measuring OAT1 and OAT3 mediated transport, where the transport of the substrate was determined by radiometric detection. OAT1-mediated transport was assayed using 2 μM of [3H]-PAH; OAT3-mediated transport was assayed using 10 μM of [3H]-PAH. The probe substrate for OAT1 was 2 μM [3H]-p-aminohippurate. The probe substrate for OAT3 was 10 μM [3H]p-aminohippurate. The reference inhibitor for both assays was 100 μM probenecid. Following pre incubation of the transfected MDCK-II cells in HBSS, [3H]-PAH was added at the concentrations described above. Wells were then treated with either reference inhibitor probeneic acid or with the test compound. Cells transfected with empty vector served as an additional control. […]

human transporter BCRP = biological target: T2, human transporter BCRP (Homo sapiens, UniProt Q9UNQ0); experiment: In vitro ion transport assay 1, BCRP; assay type: cell-based; conditions: probe substrate 2 μM [3H]-prazosin
T2 construct: expressed in transfected cells; host or cells: MDCK-II
T2 sequence (Q9UNQ0 1-655): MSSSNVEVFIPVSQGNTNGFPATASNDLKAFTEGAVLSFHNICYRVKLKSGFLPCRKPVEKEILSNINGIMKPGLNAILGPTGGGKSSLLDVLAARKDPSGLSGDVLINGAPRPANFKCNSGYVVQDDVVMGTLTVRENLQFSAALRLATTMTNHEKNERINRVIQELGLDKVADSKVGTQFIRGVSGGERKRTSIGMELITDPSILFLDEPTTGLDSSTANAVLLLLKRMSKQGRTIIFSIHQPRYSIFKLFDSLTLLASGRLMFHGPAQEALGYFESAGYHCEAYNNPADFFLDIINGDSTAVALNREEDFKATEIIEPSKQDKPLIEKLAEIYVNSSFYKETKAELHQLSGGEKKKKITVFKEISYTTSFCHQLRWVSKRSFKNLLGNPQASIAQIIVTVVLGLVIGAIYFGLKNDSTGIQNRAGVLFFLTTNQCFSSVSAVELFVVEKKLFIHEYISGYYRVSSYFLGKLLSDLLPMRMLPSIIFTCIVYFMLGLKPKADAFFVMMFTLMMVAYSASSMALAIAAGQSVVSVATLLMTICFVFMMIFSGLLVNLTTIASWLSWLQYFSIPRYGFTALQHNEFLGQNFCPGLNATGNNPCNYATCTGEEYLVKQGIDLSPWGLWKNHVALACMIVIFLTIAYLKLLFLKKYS
Description: Compound 1 was studied in the concentration range of 0.1-100 μM for its potency against transport mediated by various transporter proteins. [table]

[1] = system: glial fibrillary acidic protein (GFAP); experiment: GFAP IHC, L61 ASYN transgenic mice; assay type: in vivo
Description: Neuroinflammation is also associated with increased expression of glial fibrillary acidic protein (GFAP) in activated astrocytes, which is induced by a variety of molecules including pro-inflammatory mediators released from activated microglia (Saijo et al. 2009). Increased expression of glial fibrillary acidic protein (GFAP) represents astroglial activation and gliosis during neurodegeneration. (Brahmachari et al., 2006). The effects of Compound 1 on GFAP expression were assessed in both L61 ASYN transgenic and non-transgenic mice in a 1 month administration study. After 30 days, the mice were sacrificed, and IHC detection of GFAP was assessed in the harvested brain tissues.
The harvested brain tissues from treated mice were fixed (drop fixed in 4% PFA) and then sectioned into 40 micro thick sections using a vibratome. The representative sections containing the hippocampus were assessed for GFAP with standard immunohistochemistry staining. The general methods used for GFAP immunostaining follow those described in Rockenstein et al., J Neurosci Res. 2002, 68(5):568-78.

potency against OAT3 compared with potency against OAT1 (human transporter OAT3; OAT3 vs OAT1, [3H]-PAH uptake): about 20 fold
pIC50 (human transporter OAT3; assay 1, probe substrate 10 μM [3H]-p-aminohippurate, MDCK-II cells): 6.21
pIC50 (human transporter BCRP): 4.29
Compound: O=S(=O)(c1ccc(-n2cn[nH]c2=S)cc1)c1ccc(Cl)c(C(F)(F)F)c1 [Compound 1, 4-(4-((4-chloro-3-(trifluoromethyl)phenyl)sulfonyl)phenyl)-2,4-dihydro-3H-1,2,4-triazole-3-thione]
GFAP levels, IHC staining intensity in representative images ([1]; 5 mg/kg or 10 mg/kg daily i.p.): reducing cortical levels of GFAP
GFAP levels, quantification of IHC staining ([1]; 10 mg/kg daily i.p.): reduces the cortical GFAP levels in a statistically significant manner
